This is an account of results in PMC2699117, “Drug Discovery Using Chemical Systems Biology: Repositioning the Safe Medicine Comtan to Treat Multi-Drug and Extensively Drug Resistant Tuberculosis” (PLoS Computational Biology, 2009).

The target in the assay is T1, InhA (enoyl-acyl carrier protein reductase) (Mycobacterium tuberculosis, UniProt P9WGR1).
T1 construct: wild-type InhA
Description: biochemical.

T1 sequence (P9WGR1 whole entry, looked up): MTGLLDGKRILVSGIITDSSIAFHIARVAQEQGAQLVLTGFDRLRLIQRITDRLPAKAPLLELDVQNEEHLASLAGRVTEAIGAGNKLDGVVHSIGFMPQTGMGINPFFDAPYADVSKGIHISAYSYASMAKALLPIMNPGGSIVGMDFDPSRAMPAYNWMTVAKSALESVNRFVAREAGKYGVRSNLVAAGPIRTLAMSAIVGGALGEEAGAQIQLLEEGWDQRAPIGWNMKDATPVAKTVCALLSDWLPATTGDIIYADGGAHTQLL

For the compound `CCN(CC)C(=O)/C(C#N)=C/c1cc(O)c(O)c([N+](=O)[O-])c1` [entacapone], the IC50 (in general, the concentration that gives 50% inhibition) was determined as 79 ± 10 µM.
